Measured values as given in PMC10603551 (Oncology Reports, 2023).
Where a name gives a salt, the structure may show the parent alone.

Molecular target: T1, STAT5b (Homo sapiens, UniProt P51692)
T1 sequence (P51692 1-787): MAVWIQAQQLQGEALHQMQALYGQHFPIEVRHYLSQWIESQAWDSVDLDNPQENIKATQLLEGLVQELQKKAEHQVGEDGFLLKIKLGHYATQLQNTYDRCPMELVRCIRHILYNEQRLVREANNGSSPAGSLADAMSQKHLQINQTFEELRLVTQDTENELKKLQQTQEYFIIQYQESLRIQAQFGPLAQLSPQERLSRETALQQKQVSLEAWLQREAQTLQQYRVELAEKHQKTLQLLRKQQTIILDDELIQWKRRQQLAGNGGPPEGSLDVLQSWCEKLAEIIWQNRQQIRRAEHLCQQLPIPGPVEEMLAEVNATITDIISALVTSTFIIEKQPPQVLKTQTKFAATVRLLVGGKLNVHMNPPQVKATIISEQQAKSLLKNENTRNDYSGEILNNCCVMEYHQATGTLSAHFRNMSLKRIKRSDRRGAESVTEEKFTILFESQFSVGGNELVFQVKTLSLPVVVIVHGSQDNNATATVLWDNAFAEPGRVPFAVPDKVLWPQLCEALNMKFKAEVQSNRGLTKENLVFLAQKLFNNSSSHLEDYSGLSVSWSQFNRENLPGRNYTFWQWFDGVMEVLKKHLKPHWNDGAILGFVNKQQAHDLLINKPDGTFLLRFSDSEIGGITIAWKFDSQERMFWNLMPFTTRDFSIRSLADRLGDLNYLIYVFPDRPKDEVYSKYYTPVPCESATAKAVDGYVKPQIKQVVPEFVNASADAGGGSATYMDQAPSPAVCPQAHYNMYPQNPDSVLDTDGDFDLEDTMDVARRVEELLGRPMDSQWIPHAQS
Format: binding

`CC[C@@]1(O)C(=O)OCc2c1cc1n(c2=O)Cc2cc3c(CN(C)C)c(O)ccc3nc2-1` [compound 108, topotecan hydrochloride] was tested. Which Ki did it give?
Its Ki is 1000 to 3000 nM.
